The structures appear in SMILES notation.

In test [1] the target is Neprilysin (Homo sapiens, UniProt P08473). As to the kind of experiment: Tested in vitro for inhibition of neutral endopeptidase (NEP). The settings on record: read-out: I50.
Test [2] has as its system Rattus norvegicus. As to the kind of experiment: Tested in vivo for inhibition of angiotensin I -induced pressor response in normotensive rats after iv administration. The test is classed as functional.
Test [3] concerns the target Angiotensin-converting enzyme (Homo sapiens, UniProt P12821). As to the kind of experiment: Tested in vitro for inhibition of Angiotensin converting enzyme (ACE). The following applies: read-out: I50.

Chain of Neprilysin (P08473 whole entry): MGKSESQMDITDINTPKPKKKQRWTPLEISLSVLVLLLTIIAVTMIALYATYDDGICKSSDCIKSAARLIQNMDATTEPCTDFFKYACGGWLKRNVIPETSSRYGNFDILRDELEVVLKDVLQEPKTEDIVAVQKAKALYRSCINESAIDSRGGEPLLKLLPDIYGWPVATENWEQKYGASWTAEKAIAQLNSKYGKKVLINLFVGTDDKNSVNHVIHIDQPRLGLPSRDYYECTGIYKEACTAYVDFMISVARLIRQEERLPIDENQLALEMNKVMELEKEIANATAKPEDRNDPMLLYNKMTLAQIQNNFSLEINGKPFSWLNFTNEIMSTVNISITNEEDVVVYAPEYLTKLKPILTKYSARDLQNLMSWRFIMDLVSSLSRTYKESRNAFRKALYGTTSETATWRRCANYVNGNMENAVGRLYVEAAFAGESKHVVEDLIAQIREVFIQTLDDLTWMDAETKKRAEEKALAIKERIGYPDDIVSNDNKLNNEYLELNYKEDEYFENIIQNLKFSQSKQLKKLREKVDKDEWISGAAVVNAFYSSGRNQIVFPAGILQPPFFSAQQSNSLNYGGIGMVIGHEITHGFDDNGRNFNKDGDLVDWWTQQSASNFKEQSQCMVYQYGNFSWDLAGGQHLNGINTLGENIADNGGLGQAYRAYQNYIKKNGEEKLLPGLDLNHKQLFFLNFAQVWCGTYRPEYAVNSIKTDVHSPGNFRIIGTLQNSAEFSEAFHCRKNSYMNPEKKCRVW
Chain of Angiotensin-converting enzyme (P12821 whole entry): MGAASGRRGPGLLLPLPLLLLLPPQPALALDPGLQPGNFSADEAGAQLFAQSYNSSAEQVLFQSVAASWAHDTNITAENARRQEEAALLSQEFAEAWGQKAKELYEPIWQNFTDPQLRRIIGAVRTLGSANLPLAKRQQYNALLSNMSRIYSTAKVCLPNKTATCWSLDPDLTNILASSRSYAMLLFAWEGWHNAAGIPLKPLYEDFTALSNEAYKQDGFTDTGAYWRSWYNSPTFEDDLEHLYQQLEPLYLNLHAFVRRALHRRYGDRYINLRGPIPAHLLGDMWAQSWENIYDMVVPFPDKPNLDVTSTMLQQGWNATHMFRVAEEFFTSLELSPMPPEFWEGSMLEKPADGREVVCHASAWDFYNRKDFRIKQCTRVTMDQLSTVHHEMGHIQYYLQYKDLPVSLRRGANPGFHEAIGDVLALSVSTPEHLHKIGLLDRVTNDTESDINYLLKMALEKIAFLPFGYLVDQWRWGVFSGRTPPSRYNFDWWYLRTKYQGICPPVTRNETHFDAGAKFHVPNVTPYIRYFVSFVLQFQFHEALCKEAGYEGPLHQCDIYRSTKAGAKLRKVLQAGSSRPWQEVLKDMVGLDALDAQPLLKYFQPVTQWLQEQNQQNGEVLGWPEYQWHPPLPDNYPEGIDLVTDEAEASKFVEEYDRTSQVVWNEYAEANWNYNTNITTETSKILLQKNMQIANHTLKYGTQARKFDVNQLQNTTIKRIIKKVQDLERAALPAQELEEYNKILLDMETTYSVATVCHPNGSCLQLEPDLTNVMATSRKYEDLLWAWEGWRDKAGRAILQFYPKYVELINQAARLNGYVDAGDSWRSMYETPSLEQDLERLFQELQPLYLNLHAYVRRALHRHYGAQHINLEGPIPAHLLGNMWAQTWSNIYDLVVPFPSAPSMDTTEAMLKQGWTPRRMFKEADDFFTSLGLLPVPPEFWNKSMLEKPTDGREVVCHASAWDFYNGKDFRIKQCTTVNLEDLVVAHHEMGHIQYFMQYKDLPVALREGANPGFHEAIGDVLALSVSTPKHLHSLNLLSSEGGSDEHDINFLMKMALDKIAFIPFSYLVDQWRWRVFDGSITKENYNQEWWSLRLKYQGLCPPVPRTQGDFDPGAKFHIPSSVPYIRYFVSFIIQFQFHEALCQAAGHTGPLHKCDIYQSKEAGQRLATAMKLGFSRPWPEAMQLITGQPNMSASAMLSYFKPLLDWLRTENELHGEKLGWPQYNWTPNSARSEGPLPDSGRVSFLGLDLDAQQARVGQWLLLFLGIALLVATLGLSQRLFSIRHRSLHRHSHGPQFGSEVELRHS

A word on the ED50: it is the midpoint of the dose-response relation. With `O=C(O)CN1C(=O)[C@@H](NC(=O)[C@@H](S)Cc2ccccc2)CCc2ccccc21`, the IC50 in test [1] is 6.1 nM. In test [2], this compound returned a median effective dose (ED50) of 0.02 µmol/kg.

Consider `C[C@H](NC(=O)[C@@H](CS)Cc1ccccc1)C(=O)N1CCC[C@H]1C(=O)O`, for which the figures for the IC50 in test [1] and in test [3] were 6.6 nM and 4 nM, respectively. For the same compound, it took a dose of 0.5 µmol/kg to reach the 50% effect level in test [2] (ED50).

With `C[C@H]1Oc2ccccc2N(CCC(=O)O)C(=O)[C@H]1NC(=O)[C@@H](S)Cc1ccccc1`, the figures for the IC50 in test [1] and in test [3] were 83 nM and 18 nM, respectively.

`O=C(O)CN1C(=O)[C@@H](NC(=O)[C@@H](CS)Cc2ccccc2)COc2ccccc21`: the IC50 in test [1] was 0.6 nM; in test [3] it was 4.4 nM. Further, the 50% effect level in test [2] (ED50) was put at a dose of 5.8 µmol/kg.

In the case of `C[C@H]1Oc2ccccc2N(CC(=O)O)C(=O)[C@H]1NC(=O)[C@@H](S)Cc1ccccc1`, the IC50 in test [1] was found to be 118 nM; in test [3], 13 nM. In test [2], this compound gave a median effective dose (ED50) of 0.015 µmol/kg.

On to `O=C(O)CCN1C(=O)[C@@H](NC(=O)[C@@H](S)Cc2ccccc2)CCc2ccccc21`, for which the IC50 in test [1] came to 2.4 nM; in test [3], 36 nM. The ED50 in test [2] came out at 1.34 µmol/kg.

Turning to `O=C(O)CN1C(=O)[C@@H](NC(=O)[C@@H](CS)Cc2ccccc2)CCc2ccccc21`, the IC50 is 2.1 nM in test [1] and 4.8 nM in test [3]. This compound registered an ED50 in test [2] of 0.52 µmol/kg.

Turning to `O=C(O)CCN1C(=O)[C@@H](NC(=O)[C@@H](S)Cc2ccccc2)CSc2ccccc21`, the IC50 in test [1] came out at 2.2 nM; in test [3], 14 nM. The ED50 in test [2] is 0.33 µmol/kg.

For `C[C@H](NC(=O)[C@@H](S)Cc1ccccc1)C(=O)N1CCC[C@H]1C(=O)O`, the IC50 in test [1] stood at 400 nM; in test [3] it was 30 nM. The same compound yielded a median effective dose (ED50) in test [2] of 0.06 µmol/kg.

In the case of `O=C(O)CCN1C(=O)[C@@H](NC(=O)[C@@H](S)Cc2ccccc2)COc2ccccc21`, the IC50 in test [1] was determined as 1.2 nM; in test [3], 31 nM. The median effective dose (ED50) in test [2] turned out to be 1.2 µmol/kg.

Regarding `O=C(O)CN1C(=O)[C@@H](NC(=O)[C@@H](CS)Cc2ccccc2)CSc2ccccc21`, the results for the IC50 in test [1] and in test [3] were 1 nM and 17 nM, respectively. For the same compound, the 50% effect level in test [2] (ED50) was put at a dose of 4 µmol/kg.

As to `O=C(O)CCN1C(=O)[C@@H](NC(=O)[C@@H](CS)Cc2ccccc2)CCc2ccccc21`, the results for the IC50 in test [1] and in test [3] were 1.7 nM and 36 nM, respectively. This compound showed a 50% effective dose (ED50) in test [2] of 13.3 µmol/kg.

Take `O=C(O)CN1C(=O)[C@@H](NC(=O)[C@@H](S)Cc2ccccc2)CSc2ccccc21`: the IC50 came to 64 nM in test [1] and 13 nM in test [3]. This compound also came in with an ED50 in test [2] of 0.14 µmol/kg.

On to `C[C@@H]1Oc2ccccc2N(CC(=O)O)C(=O)[C@H]1NC(=O)[C@@H](S)Cc1ccccc1`, for which the IC50 in test [1] is 5.2 nM; in test [3], 36 nM. In test [2], this compound showed an ED50 of 2.1 µmol/kg.

In the case of `O=C(O)CN1C(=O)[C@@H](NC(=O)[C@@H](S)Cc2ccccc2)COc2ccccc21`, the figures for the IC50 in test [1] and in test [3] were 3.1 nM and 28 nM, respectively. Besides, it took a dose of 0.26 µmol/kg to reach the 50% effect level in test [2] (ED50).

The values are drawn from ChEMBL document CHEMBL1127937, “Dual metalloprotease inhibitors. I. constrained peptidomimetics of mercaptoacyl dipeptides” (Bioorg Med Chem Lett, 1994).
